Source: BigSolDB 2.1

Question: What does the source list for Cc1cc(=O)c(C(=O)N[C@@H](C(=O)N[C@@H]2C(=O)N3C(C(=O)O)=C(CSc4nnnn4C)CS[C@H]23)c2ccc(O)cc2)c[nH]1?
Answer: solubility (mole fraction) (in ethanol, 278.2 K): 0.000445; solubility (mole fraction) (in ethanol, 283.2 K): 0.000508; solubility (mole fraction) (in ethanol, 288.2 K): 0.000592; solubility (mole fraction) (in ethanol, 293.2 K): 0.00069; solubility (mole fraction) (in ethanol, 298.2 K): 0.000834; solubility (mole fraction) (in ethanol, 303.2 K): 0.00101; solubility (mole fraction) (in isopropanol, 278.2 K): 0.000118; solubility (mole fraction) (in isopropanol, 283.2 K): 0.00015; solubility (mole fraction) (in isopropanol, 288.2 K): 0.000187; solubility (mole fraction) (in isopropanol, 293.2 K): 0.000236; solubility (mole fraction) (in isopropanol, 298.2 K): 0.000297; solubility (mole fraction) (in isopropanol, 303.2 K): 0.000376; solubility (mole fraction) (in n-butanol, 278.2 K): 9.53e-05; solubility (mole fraction) (in n-butanol, 283.2 K): 0.000115; solubility (mole fraction) (in n-butanol, 288.2 K): 0.000139; solubility (mole fraction) (in n-butanol, 293.2 K): 0.000166; solubility (mole fraction) (in n-butanol, 298.2 K): 0.0002; solubility (mole fraction) (in n-butanol, 303.2 K): 0.000245; solubility (mole fraction) (in n-propanol, 278.2 K): 0.000242; solubility (mole fraction) (in n-propanol, 283.2 K): 0.00027; solubility (mole fraction) (in n-propanol, 288.2 K): 0.000305; solubility (mole fraction) (in n-propanol, 293.2 K): 0.000348; solubility (mole fraction) (in n-propanol, 298.2 K): 0.000407; solubility (mole fraction) (in n-propanol, 303.2 K): 0.000479; solubility (mole fraction) (in water, 278.2 K): 4.04e-07; solubility (mole fraction) (in water, 283.2 K): 4.82e-07; solubility (mole fraction) (in water, 288.2 K): 5.8e-07; solubility (mole fraction) (in water, 293.2 K): 6.99e-07; solubility (mole fraction) (in water, 298.2 K): 8.5e-07; solubility (mole fraction) (in water, 303.2 K): 1.04e-06
